Values joined by “and” are separate entries in the source; they are usually repeats but may differ in a detail not shown here. Equal entries are not always repeated. “Also recorded” adds a separate entry of the source.
Assays:
[1] = system: MSSA colonies in the nares; experiment: Human study Part One: nasal colonization of MSSA, NOVEON laser alone, with H2O2 or with topical erythromycin; assay type: in vivo, Staphylococcus aureus; conditions: patient 01-005, Laser/erythromycin arm
Experimental: (§1) This investigational protocol was an open-label study of subjects who are colonized with MRSA in the nares (nostril). The study was done in two parts.
(§2) In this human study, three arms were produced. […] This was done on day 1 and again on day three; and Arm #3: ⅓ of the subjects were treated with the laser and then a topical antibiotic three times a day for five days. Prior to enrollment in this study, prospective subjects met all of the following criteria: age≧18 years and ≦70 years of age; previous positive MRSA culture; negative urine pregnancy test or post-menopausal for one year; willing to comply with study requirements, including return visits and self-application of topical antibiotics; and willing to provide informed consent to participate. Prospective subjects were excluded from this study if any of the following criteria were met: pregnancy; patients who are severely immunocompromised (such as may occur in AIDS, renal transplant regimens, immunosuppressed states consequent to malignancy or agents used in rendering oncologic care, or who suffer from end stage renal disease); diabetic patients; allergy to antimicrobials being used in the study (group 3).
(§3) All participants underwent an initial quantitative assessment for nasal carriage of S. aureus, during their first visit. Each participant had the anterior nares (each nostril) sampled for culture with a circular movement (three rotations on each side) of a sterile wood applicator plain Rayon® tipped swab in each nostril and placed in a labeled tube. 2 ml of room temp phosphate buffered saline was placed in the tube after the removal of the swab (to completely cover the swab in the tube). Each swab was then placed back in the tube and the tube was then vortexed for 15 seconds to disperse isolates of MRSA and/or MSSA into the PBS solution. Aliquots of PBS from the tube were plated in the following manner: 100 μl from each tube was lawn plated in triplicate (3×) on selective Chromogenic MRSA And MSSA agar. Plates were placed in incubator within 30 minutes of the plating procedure, and colonies were counted manually, and recorded 18 hrs after plating.
(§4) On day one of the study, all subjects underwent this exact procedure in arms 1 and 2 of the study two minutes before the laser procedure. They again were sampled in the same manner 2 minutes after the laser procedure. In the third arm of the study, they were swabbed two minutes before the procedure and the first antibiotic administration was completed after the laser therapy. The post/laser swab sample was taken for this arm 20 min later.
(§5) On day three of the study, all subjects from arms one two and three underwent the exact same procedures as day 1 of the study.
(§6) On day five all subjects from all arms underwent just one swabbing per nostril with the exact same sampling procedure one time.
(§7) 3% OTC hydrogen peroxide was applied to a cotton pledget for application to the subject prior to irradiation. This was inserted in the nose for 120 seconds and then removed. The subjects were then given doses of phototherapeutic near infrared radiation as described.
(§8) The subjects were first given doses of phototherapeutic near infrared radiation as described. […] The swab was inserted approximately 1 cm in to the anterior nares and rotated 360 degrees several times and removed. Patients were instructed to perform the exact application procedure 3 times a day for the remaining 5 days.
(§9) The NOVEON™ laser was used for two (2) six-minute treatments in each nostril on day (1) and day (3) of the study.
(§10) The laser was calibrated before the first treatment of the day. Intermittent temperature testing of the treatment site was performed on each subject using a noncontact infrared thermometer (Raytek Minitemp), 30-60 second intervals. If a temperature of 110 F degrees was reached, or the patient complained of pain, the laser treatment was interrupted and only resumed when the patient was comfortable.

[2] = system: MRSA colonization in the nares; experiment: Human study Part One: nasal colonization of MRSA, NOVEON laser alone, with H2O2 or with topical erythromycin; assay type: in vivo, Staphylococcus aureus
Experimental: as §1, §2, §3, §4, §5, §6, §7, §8, §9, §10

[3] = system: MRSA; experiment: MRSA/antimicrobial potentiation Experiment 4: CFU with or without methicillin, penicillin G or erythromycin, groups A4 to F4; assay type: cell-based, Staphylococcus aureus; conditions: for CFU: agar with 4 μg/ml erythromycin
Experimental: Two different laser dosages based on an effective dose established in previous experiments were used to treat a saline-suspension of logarithmically growing MRSA, labeled A4 to F4.
After 24 hrs of growth at 37° C. colonies were counted.

[4] = system: MRSA; experiment: MRSA CFU counts on agar with trimethoprim or erythromycin after sub-lethal NIMELS laser (Example VIII); assay type: cell-based, Staphylococcus aureus
Excerpt: The following illustrates the general antibacterial methods according to the invention, using a MRSA model for the in vitro Experiments V and VIII-XII.
a) μ1 is sub-lethal dosimetry from the NIMEL laser system on MRSA as a control and;

[5] = system: nasal colonization of MRSA; experiment: Human study Part Two: nasal colonization of erythromycin resistant MRSA, NOVEON laser plus 2% erythromycin paste; assay type: in vivo, Staphylococcus aureus; conditions: six patients, before phototherapy
Experimental: (§11) A second human study was conducted, to further evaluate the therapeutic potential of the NOVEON™ laser system, including its ability to reverse drug resistance in bacteria. The study was conducted in a similar manner as Part One, above. Outcome measures assessed included both laboratory study and clinical observations.
(§12) Positive anterior nares cultures were obtained in six patients (12 nostrils) having nasal colonization of MRSA or MSSA, before initiating bacterial photodamage through doses of phototherapeutic near infrared radiation.
(§13) The swab was inserted approximately 1 cm in to the anterior nares of the subject, rotated 360 degrees several times and removed.
(§14) The laser was calibrated before the first treatment of the day and between each patient. The NOVEON™ laser was used for four six-minute treatments of the nares at the following sets of dosimetries (Tables 45), which were evaluated for safety in previous studies. Utilizing a 10 cm flat-top diffuser, each patient underwent exposure with the Noveon for […] (energy density—207 J/cm2) to each anterior nostril on Day 1 and on Day 3. The treatment was divided into two parts, an approximately 3-minute exposure using a combination of 870 nm and 930 nm and an approximately 3-minute exposure of 930 nm alone. Temperatures of the nares were recorded every 30 seconds with an IR temperature thermometer.

[6] = system: nasal colonization of MSSA; experiment: Human study Part Two: nasal colonization of erythromycin resistant MSSA, NOVEON laser plus 2% erythromycin paste; assay type: in vivo, Staphylococcus aureus; conditions: six patients, before phototherapy
Experimental: as §11, §12, §13, §14

[7] = patient 01-005, Laser/erythromycin arm, 2% erythromycin paste 3 times a day

Structure (SMILES): CC[C@H]1OC(=O)[C@H](C)[C@@H](O[C@H]2C[C@@](C)(OC)[C@@H](O)[C@H](C)O2)[C@H](C)[C@@H](O[C@@H]2O[C@H](C)C[C@H](N(C)C)[C@H]2O)[C@](C)(O)C[C@@H](C)C(=O)[C@H](C)[C@@H](O)[C@]1(C)O [Erythromycin]
- outcome on MSSA colonization (in words) [1]: MRSA and MSSA eradication in both nostrils
- outcome on MRSA colonization (in words) ([2]; patient 01-005, Laser/erythromycin arm): MRSA and MSSA eradication in both nostrils
- reduction of bioburden, heavily colonized nostril [2, 7]: ≥ 3 log
- reduction of bioburden, moderately colonized nostril [2, 7]: ≥ 2 log
- sensitivity of the patient's MRSA colony to erythromycin before phototherapy ([2]; patient 01-005, prior to phototherapy): not sensitive to erythromycin prior to phototherapy
- CFU ([3]; Group E4, Exp (laser treated), replicate plates 1-5): 0 CFU (3×) and 1 CFU (2×)
- CFU ([3]; Group F4, Cont (no laser), replicate plates 1-5, 24 hrs 37° C.): 170 CFU
- CFU ([3]; Group F4, Exp (laser treated), replicate plates 1-5): 2 CFU and 7 CFU and 6 CFU (2×) and 8 CFU
- synergy or potentiation with NIMELS in growth inhibition of MRSA colonies (in words) ([3]; sub-lethal NIMELS dosimetry, bar chart figure): synergistic effects; also recorded: potentiated to a greater extent
- reversal of MRSA resistance in vitro by dual wavelength NOVEON laser (in words) ([3]; temperature levels not lethal to the organism): successful reversal of MRSA resistance
- MRSA colony count, EXPERIMENTAL, erythro 4 ug/ml ([4]; sub-lethal NIMELS laser, then plated on agar with erythromycin 4 ug/ml, plates B-4 1 to 5): 27 and 39 and 35 and 28
- effect of sub-lethal NIMELS on antibiotic resistance of MRSA (in words) ([4]; sub-lethal laser parameters, erythromycin 4 ug/ml): resistance to erythromycin being reversed
- erythromycin resistance of cultured MRSA at baseline [5]: resistant to erythromycin
- erythromycin resistance of cultured MSSA at baseline [6]: resistant to erythromycin
